Assay results published in ChEMBL document CHEMBL1201862, “PubChem BioAssay data set” (2004).
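These data come from cells grown in 96-well plates and exposed to compound for 48 hours at five concentrations. The concentration for 50% growth inhibition is given as GI50.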 The source made the active and inactive calls. Rule as the data show it: active = GI50 up to about 1.1 µM and inactive = higher.

Key:
Experiment in all cases: growth of human tumour cells (NCI), 48 h
[1] = tested on: A549
[2] = tested on: COLO 205
[3] = tested on: EKVX
[4] = tested on: HCC 2998
[5] = tested on: HL-60
[6] = tested on: IGROV-1
[7] = tested on: LOX IMVI
[8] = tested on: M14
[9] = tested on: MCF7
[10] = tested on: MDA-N
[11] = tested on: Malme-3M
[12] = tested on: PC-3
[13] = tested on: SF-295
[14] = tested on: SK-MEL-2
[15] = tested on: SNB-19
[16] = tested on: SNB-75
[17] = tested on: UACC-62
[18] = tested on: MDA-MB-231

SMILES	GI50 [1]	GI50 [2]	GI50 [3]	GI50 [4]	GI50 [5]	GI50 [6]	GI50 [7]	GI50 [8]	GI50 [9]	GI50 [10]	GI50 [11]	GI50 [12]	GI50 [13]	GI50 [14]	GI50 [15]	GI50 [16]	GI50 [17]	GI50 [18]
COc1cc2c(c(OC)c1OC)-c1ccc(SC)cc1C(=O)CC2	< 0.01 µM (active)	< 0.01 µM (active)	< 0.0382 µM (active)	< 0.01 µM (active)	< 0.01 µM (active)	< 0.01 µM (active)	< 0.01 µM (active)	< 0.01 µM (active)	< 0.01 µM (active)	0.0243 µM (active)	< 0.01 µM (active)	< 0.01 µM (active)	< 0.01 µM (active)	> 100 µM (inactive)	< 0.01 µM (active)	1 µM (active)	< 0.01 µM (active)	–
O=C(N/N=C\c1cccc(O)c1)c1ccncc1	> 100 µM (inactive)	–	> 100 µM (inactive)	> 100 µM (inactive)	–	> 100 µM (inactive)	> 100 µM (inactive)	> 100 µM (inactive)	–	> 100 µM (inactive)	> 100 µM (inactive)	> 100 µM (inactive)	> 100 µM (inactive)	> 100 µM (inactive)	> 100 µM (inactive)	> 100 µM (inactive)	> 100 µM (inactive)	> 100 µM (inactive)
CN(Cc1cccc2ccccc12)Cc1cccc2ccccc12	34 µM (inactive)	17.8 µM (inactive)	37.5 µM (inactive)	22.7 µM (inactive)	13.4 µM (inactive)	32.2 µM (inactive)	34.3 µM (inactive)	27.5 µM (inactive)	20.7 µM (inactive)	–	20 µM (inactive)	24 µM (inactive)	26.7 µM (inactive)	14.1 µM (inactive)	52.7 µM (inactive)	46.1 µM (inactive)	67.5 µM (inactive)	21.8 µM (inactive)
c1cc2nnnn2nc1N1CCCC1	> 100 µM (inactive)	> 100 µM (inactive)	–	> 100 µM (inactive)	> 100 µM (inactive)	–	> 100 µM (inactive)	> 100 µM (inactive)	> 100 µM (inactive)	> 100 µM (inactive)	–	> 100 µM (inactive)	> 100 µM (inactive)	> 100 µM (inactive)	> 100 µM (inactive)	–	> 100 µM (inactive)	> 100 µM (inactive)
CCOc1cc(NC(C)=O)ccc1C(=O)NN1C(=O)/C(=C/c2cc(OC)c(OC)c(OC)c2)N=C1c1ccccc1	> 100 µM (inactive)	> 100 µM (inactive)	> 100 µM (inactive)	> 100 µM (inactive)	> 100 µM (inactive)	> 100 µM (inactive)	> 100 µM (inactive)	64.9 µM (inactive)	> 100 µM (inactive)	> 100 µM (inactive)	53.5 µM (inactive)	–	> 100 µM (inactive)	–	> 100 µM (inactive)	–	> 100 µM (inactive)	–
CCN(CC)C(=S)SS(=O)(=O)c1cccc(N)c1	> 100 µM (inactive)	> 100 µM (inactive)	> 100 µM (inactive)	> 100 µM (inactive)	–	–	> 100 µM (inactive)	> 100 µM (inactive)	> 100 µM (inactive)	> 100 µM (inactive)	> 100 µM (inactive)	–	> 100 µM (inactive)	> 100 µM (inactive)	> 100 µM (inactive)	–	> 100 µM (inactive)	> 100 µM (inactive)
NC(=O)N/N=C1/CCC(O)CC1CC(=O)O (centres undefined)	> 100 µM (inactive)	> 100 µM (inactive)	> 100 µM (inactive)	–	2.7 µM (inactive)	> 100 µM (inactive)	> 100 µM (inactive)	> 100 µM (inactive)	> 100 µM (inactive)	> 100 µM (inactive)	> 100 µM (inactive)	> 100 µM (inactive)	> 100 µM (inactive)	> 100 µM (inactive)	> 100 µM (inactive)	–	> 100 µM (inactive)	> 100 µM (inactive)
Cc1ccc(NC=O)c(-c2c(N)[nH]c(=S)[nH]c2=O)c1	> 100 µM (inactive)	> 100 µM (inactive)	> 100 µM (inactive)	–	> 100 µM (inactive)	> 100 µM (inactive)	> 100 µM (inactive)	> 100 µM (inactive)	> 100 µM (inactive)	> 100 µM (inactive)	> 100 µM (inactive)	–	> 100 µM (inactive)	> 100 µM (inactive)	> 100 µM (inactive)	> 100 µM (inactive)	> 100 µM (inactive)	> 100 µM (inactive)
COc1cccc(/C=N/NC(=O)CN(C)C)c1O	> 100 µM (inactive)	> 100 µM (inactive)	> 100 µM (inactive)	> 100 µM (inactive)	> 100 µM (inactive)	> 100 µM (inactive)	> 100 µM (inactive)	> 100 µM (inactive)	> 100 µM (inactive)	> 100 µM (inactive)	> 100 µM (inactive)	> 100 µM (inactive)	> 100 µM (inactive)	–	> 100 µM (inactive)	< 0.01 µM (active)	> 100 µM (inactive)	–
